Measured values from patent publication US10479814B2, “Adenosine receptor activation reagent and the uses of thereof” (Zhejiang Subtropical Crops Research Institute, priority 2014, dated 2019).
“Also recorded” adds a separate entry of the source.

Assays:
Type in all cases: in vivo
[1] = system: TNF-α mRNA in mouse renal cortex; assay: kidney ischemia reperfusion: real time quantitative PCR of TNF-α; conditions: vs IR group; HEA 5, 7.5, 10 mg/kg; DPCPX 1 mg/kg; DPCPX 1 mg/kg+HEA
Description: Male C57BL/6 mice 20-25 g, after one week of adaptive feeding to the animals, were randomly divided into eight groups: sham-operation group, IR group, HEA 5 mg/kg group, HEA 7 mg/kg group, HEA 10 mg/kg group, DPCPX (1 mg/kg) group, DPCPX (1 mg/kg)+HEA (5 mg/kg) group and DPCPX (1 mg/kg)+HEA (7.5 mg/kg) group. […]
The MPO analysis was conducted according to the specification in the kit. 9.2.6 Real time quantitative PCR analysis of gene expression of ICAM-1, TNF-α and IL-1β; the sequence of primer used in RT-PCR reaction system is as follow:
PCR amplification reaction system: IQ SYBR Green Super mix 12.5 μL, Forward primer (10 μmo/L) 1 μL, Reverse primer (10 μmol/L) 1 μL, cDNA (water was added to dilute to same level) 10.5 μL. […] The statistics and calculation of experiment results was automatically conducted fluorescence quantitative PCR analyzing software BIO-RAD CFX Manager. Target gene mRNA expression level was calculated by 2-ΔΔCt method, and standardized using the GAPDH mRNA in corresponding specimen a standard.

[2] = system: rat middle cerebral artery distal obstruction cerebral ischemia model; assay: dMCAO cerebral ischemia: TUNEL detection of brain cortex apoptosis
Description: Using rat middle cerebral artery distal obstruction cerebral ischemia model. (1) according to rat weight, 10% chloral hydrate (3 ml/kg) was peritoneally injected to anaesthetize. (2) the rat lie on right side and fixed, 1 cm skin incision was cut at connection of inner canthus with external canal, fascia was isolated, muscle tissue, the skull was exposed; (3) a small amount of normal saline was sucked with cotton ball to wipe the skull to ac clear view; (4) fascia was isolated under operating microscope, and the skull was exposed, a hole with diameter of 2 mm circular was drilled at a sute 1/3 of spine; (5) the excess bone debris was washed by a small amount of normal saline, the meninge was push aside, and the middle cerebral artery MCA was exposed; (6) the rat lie in supine position and fixed, an incision was made along middle of throat, and arteria carotis communis CCA on both sides were isolate, pass through with a surgical suture, not ligated temporarily; (7) the MCA was found under operating microscope, burned by a monopolar coagulator, then wash and colled with normal saline; (8) immediately after coagulation, the arteria carotis communis on both sides was ligated, and blocked for 60 min; (9) the wound on head was stitched, after 1 hour the arteria carotis communis on both sides was […], and the skin was stitched, thus the modeling was complete. […]

[3] = system: mouse kidney ischemia reperfusion; assay: kidney ischemia reperfusion: kidney function test (Scr, BUN); conditions: for serum BUN level / serum Scr level: 24 h after ischemia reperfusion, vs IR group, ip pretreatment, HEA 5, 7.5, 10 mg/kg, DPCPX 1 mg/kg, DPCPX 1 mg/kg+HEA 7.5 mg/kg
Description: Male C57BL/6 mice 20-25 g, after one week of adaptive feeding to the animals, were randomly divided into eight groups: sham-operation group, IR group, HEA 5 mg/kg group, HEA 7 mg/kg group, HEA 10 mg/kg group, DPCPX (1 mg/kg) group, DPCPX (1 mg/kg)+HEA (5 mg/kg) group and DPCPX (1 mg/kg)+HEA (7.5 mg/kg) group. The mouse was weighed before operation, then peritoneally injected with pentobarbital sodium 50 mg/kg to anaesthetize the mouse, abdomen was opened by ventromedial incision, blunt dissection and the kidney pedicle was sufficiently exposed, renal ischemia was induced by clapping two side kidney pedicle with non-invasive bulldog clamp, the color of kidney change from bright red to purple black immediately, determination method of success of the experiment model can refer to the methods in literature 7 and 8. At time of 30 min of ischemia the bulldog clamp was loosened, the perfuse was restored, the color of kidney changed gradually from dark red to bright red, showing re perfusion was successful. The wound was stitched. The animals were freely fed water and food. In the sham-operation group, the mice only received operation of abdomen open, kidney pedicle and abdomen suture. The kidney IR mode were made for the mice in the remaining groups. In each drug group, before 15 minute of ischemia, the drug with corresponding concentration was speritoneally injected, in drug combination group, 15 minutes before ischemia, the drugs were given simultaneously. At 24 hours after Reperfussion, the mouse was again anaesthetized, obtaining the venous blood. Using full-automatic biochemical analysis systems (Dimension Xpand plus, from Siemens AG), the Scr (serum creatinine) and BUN (blood urea nitrogen) levels were detected respectively by chrysolepic acid rate method and enzymatic rate.

[4] = system: mouse sleep induced by pentobarbital sodium; assay: sleep induced by threshold dose of pentobarbital sodium
Description: Male ICR mice were randomly divided into four groups, respectively control group, positivediazepam (1 mg/kg) group, HEA (25 mg/kg) group and DPCPX+HEA (2 mg/kg+25 mg/kg) group. […]
Regarding the mouse righting reflex disappear for 1 min within 15 min as the hypnagogic criterion, sleep latency and sleep duration were recorded for the mice in each group.

Row | SMILES | TNF-α mRNA expression in renal cortex [1] | effect of DPCPX on brain protective effect of HEA (TUNEL) ([2]; DPCPX 1 mg/kg ip + HEA 7.5 mg/kg ip) | serum BUN level [3] | serum Scr level [3] | effect of adenosine receptor antagonist on hypnosis effect of the HEA ([4]; DPCPX+HEA 2 mg/kg+25 mg/kg) | apoptosis rate of cerebral cortex infarction ischemic penumbra (TUNEL) ([2]; dMCAO rat, HEA 7.5 mg/kg ip, vs model group) | protective effect to mouse kidney ischemia reperfusion impairment ([3]; by serum Scr and BUN level and kidney histopathological change) | sleep time induced by threshold dose of pentobarbital sodium ([4]; HEA 25 mg/kg, sc, pentobarbital sodium 50 mg/kg) | sleep latency ([4]; HEA 25 mg/kg, sc, pentobarbital sodium 50 mg/kg, vs control group)
1 | CCCn1c(=O)c2[nH]c(C3CCCC3)nc2n(CCC)c1=O [DPCPX, reference compound] | significantly increase | blocking brain protective effect of the HAE | significantly increase | significantly increase | hypnosis effect of the HEA is significantly inhibited |  |  |  | 
2 | OCCNc1ncnc2c1ncn2[C@@H]1O[C@H](CO)[C@@H](O)[C@H]1O [HEA, N(6)-(2-hydroxyethyl)-adenosine] | significantly reduce the high expression |  | significantly reduce | significantly reduce |  | significantly reduced; also recorded: significantly reduce the apoptosis rate of rat cerebral cortex infarction ischemic penumbra | has protective effect to mouse kidney ischemia reperfusion impairment | extended sleep time of the mice induced by threshold dose of pentobarbital sodium to a certain degree; also recorded: extends mouse sleep time induced by threshold dose of pentobarbital sodium to a certain degree | no statistical difference in sleep latency; also recorded: no significant effect on sleep latency
